One test addresses T1, PIN2 (Arabidopsis thaliana, UniProt Q9LU77).
T1 sequence (Q9LU77 1-647): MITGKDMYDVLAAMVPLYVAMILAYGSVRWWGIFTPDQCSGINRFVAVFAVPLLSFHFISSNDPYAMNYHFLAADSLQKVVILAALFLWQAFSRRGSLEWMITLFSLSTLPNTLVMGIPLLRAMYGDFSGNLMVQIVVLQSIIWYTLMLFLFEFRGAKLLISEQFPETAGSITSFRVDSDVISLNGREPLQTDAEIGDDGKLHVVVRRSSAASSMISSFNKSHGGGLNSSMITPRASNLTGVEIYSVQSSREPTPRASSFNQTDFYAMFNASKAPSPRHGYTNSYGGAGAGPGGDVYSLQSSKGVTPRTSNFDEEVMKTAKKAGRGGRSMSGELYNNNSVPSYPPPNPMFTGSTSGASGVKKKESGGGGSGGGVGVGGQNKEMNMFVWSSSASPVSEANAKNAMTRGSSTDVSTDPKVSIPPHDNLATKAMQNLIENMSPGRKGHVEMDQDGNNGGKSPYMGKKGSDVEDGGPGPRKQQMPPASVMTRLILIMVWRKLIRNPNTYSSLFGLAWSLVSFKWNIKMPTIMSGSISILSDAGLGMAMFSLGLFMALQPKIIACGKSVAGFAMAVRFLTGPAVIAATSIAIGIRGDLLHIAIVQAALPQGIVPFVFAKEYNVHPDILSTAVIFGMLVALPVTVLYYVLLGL
Description: whole-cell patch clamp, block of currents. The format is cell-based. The note with it: inhibition; NPPB in bath; auxin-stimulated conditions; 50 mM CsCl. A general note: In patch-clamp work, channel activity is measured electrically.

The target of a further test is T2, ABCB4 (Arabidopsis thaliana, UniProt O80725).
T2 sequence (O80725 1-1286): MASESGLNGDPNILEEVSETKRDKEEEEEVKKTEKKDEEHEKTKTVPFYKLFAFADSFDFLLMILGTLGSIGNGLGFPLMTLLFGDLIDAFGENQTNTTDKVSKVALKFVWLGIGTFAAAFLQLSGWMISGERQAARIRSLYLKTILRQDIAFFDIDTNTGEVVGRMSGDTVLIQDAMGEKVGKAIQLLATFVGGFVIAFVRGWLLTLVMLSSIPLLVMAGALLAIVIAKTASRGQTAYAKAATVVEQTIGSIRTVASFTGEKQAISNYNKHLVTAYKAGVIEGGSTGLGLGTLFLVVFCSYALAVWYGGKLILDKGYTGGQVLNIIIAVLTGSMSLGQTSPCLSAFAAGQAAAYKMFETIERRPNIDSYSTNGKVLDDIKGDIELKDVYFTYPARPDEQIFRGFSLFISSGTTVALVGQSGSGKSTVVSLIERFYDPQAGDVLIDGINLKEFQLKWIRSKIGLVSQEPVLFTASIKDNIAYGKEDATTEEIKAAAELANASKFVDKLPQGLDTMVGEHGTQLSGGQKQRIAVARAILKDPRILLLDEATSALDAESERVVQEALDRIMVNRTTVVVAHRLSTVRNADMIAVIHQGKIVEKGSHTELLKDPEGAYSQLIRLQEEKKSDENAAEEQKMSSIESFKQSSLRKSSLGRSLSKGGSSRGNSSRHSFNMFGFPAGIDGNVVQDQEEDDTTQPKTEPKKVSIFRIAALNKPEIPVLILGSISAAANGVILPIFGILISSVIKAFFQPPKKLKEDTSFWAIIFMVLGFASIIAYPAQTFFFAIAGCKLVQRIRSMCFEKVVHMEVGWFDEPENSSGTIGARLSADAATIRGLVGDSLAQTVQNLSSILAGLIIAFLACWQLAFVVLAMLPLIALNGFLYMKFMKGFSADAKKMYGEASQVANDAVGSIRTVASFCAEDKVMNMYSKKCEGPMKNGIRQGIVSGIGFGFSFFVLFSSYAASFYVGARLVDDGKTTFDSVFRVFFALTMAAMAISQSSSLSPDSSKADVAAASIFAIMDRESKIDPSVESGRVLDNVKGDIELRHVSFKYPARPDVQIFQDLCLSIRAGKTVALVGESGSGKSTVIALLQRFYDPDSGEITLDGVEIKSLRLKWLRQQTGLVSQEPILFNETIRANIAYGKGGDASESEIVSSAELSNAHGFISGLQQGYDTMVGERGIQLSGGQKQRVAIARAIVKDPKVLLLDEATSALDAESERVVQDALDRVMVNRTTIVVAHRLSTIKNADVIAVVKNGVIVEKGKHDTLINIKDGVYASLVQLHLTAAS
Briefly: whole-cell patch clamp, current magnitude. Format: cell-based. The note with it: activation; IAA in pipette (cytoplasmic side); 50 mM CsCl.

Molecules are shown by their SMILES.

On to `O=C(O)c1cc([N+](=O)[O-])ccc1NCCCc1ccccc1` [NPPB, 5‐nitro‐2‐(3‐phenylpropylamine)‐benzoic acid], for which, at PIN2, the “block at 20 μM” value was “NPPB but not NPA was an effective inhibitor”.
`O=C(O)Cc1c[nH]c2ccccc12` [IAA^−]: the “% increase in currents, 0.1 to 1 μM IAA” value on ABCB4 is given as ~ 30%.

The values above are taken from article PMC8595762 (Plant Direct, 2021).
